Two compounds from patent publication US20090304714A1, “IKKi Inhibitor Therapies and Screening Methods, and Related IKKi Diagnostics” (The Regents of the University of Michigan, priority 2008, published 2009) can be followed below.

The target in data set [1] is human insulin receptor Ser^1035Ala mutant (UniProt P06213).
Another data set relates to 3T3L1 adipocytes. Description: Insulin-stimulated 2-deoxyglucose uptake in 3T3L1 adipocytes. The class given is cell-based, mouse. Further details: inhibitory effects of LPS on insulin-stimulated glucose uptake / direct effect on insulin-stimulated or basal transport: dose or concentration left out as unconfirmed. The procedure: Cell culture and transfection. 3T3-L1 fibroblasts (American Type Culture Collection) were cultured and differentiated as described previously [Reed & Lane, Proc Natl Acad Sci USA. 1980 January; 77(1):285-9, herein incorporated by reference]. Cells were routinely used within 7 days upon completion of the differentiation process, with only cultures in which >95% of cells displaying adipocyte morphology being used. CHO-IR and COS-1 cells were maintained in Dulbecco modified Eagle medium (Gibco) containing 10% foetal bovine serum. CHO-IR and 3T3-L1 cells were routinely transfected with plasmids and siRNA by electroporation as described previously (Inoue, M., et al., (2006) Mol. Biol. Cell 17, 2303, Baumann, et al., (2000) Nature 407, 202, both of which are herein incorporated by reference). Cos-1 cells were transfected using FuGene6 (Roche Diagnostics) in accordance with the manufacturer's protocol.
Glucose uptake analysis. 3T3-L1 adipocytes grown in 12-well plates were subjected to a glucose uptake assay as described previously [Van den Berghe et al., Mol Cell Biol. 1994 April; 14(4):2372-7, herein incorporated by reference] using 0.075 uCi/well 2-deoxy-D-[^14C]glucose (GE Health). Samples were counted in an LS6500 Multi-Purpose Scintillation Counter (Beckman Coulter) using BCS Biodegradable Counting Scintillant (GE Health).

As to “wild-type IKKi (ectopically expressed, Example 1)”, in data set [1], the “incorporation of radioactive phosphate into the receptor” value was “the Ser^1035Ala substitution blocked the incorporation of radioactive phosphate relative to the wild-type receptor when co-expressed with IKKi”.
Turning to `COc1cc2ncn(-c3cc(OCc4ccccc4S(C)(=O)=O)c(C#N)s3)c2cc1OC` [5-(5,6-Dimethoxy-1H-benzimidazol-1-yl)-3-[[2-(methylsulfonyl)phenyl]methoxy]-2-thiophenecarbonitrile], the “direct effect on insulin-stimulated or basal transport” value with 3T3L1 adipocytes (3T3L1 adipocytes) was “little direct effect”. Moreover, the “LPS decreases in insulin stimulated glucose uptake” value in the data set on 3T3L1 adipocytes (3T3L1 adipocytes treated with 50 nM inhibitor prior to LPS and insulin (FIG. 6b)) is “prevents”. Besides, the “inhibitory effects of LPS on insulin-stimulated glucose uptake” value in the data set on 3T3L1 adipocytes (3T3L1 adipocytes treated, then LPS, followed by insulin) is “prevented”.
